From patent US6713504B2, “Antifungal molecule 2-(3,4-dimethyl-2,5-dihydro-1H-pyrrol-2-yl)-1-methylethyl pentanoate” (Council of Scientific & Industrial Research, priority 2002, dated 2004)

Key:
RAW cells = experiment: In vitro cell cytotoxicity by MTT assay; assay type: cell-based
Experimental: (§1) The stock culture of RAW cells was obtained from National Facility for Cell and Tissue Culture, Pune.
(§2) The stock solution of the compound was prepared by dissolving 2.5 mg of the purified compound in minimum amount of DMSO and then diluted with double distilled water to make the final volume 1.0-ml.
(§3) The cells were harvested at the log phase of growth confluency from the flask. The homogeneous suspension of cells was prepared in 2.0 ml of culture medium. The number of cells in the suspension was counted using a hemocytometer and the cell suspension was diluted in such a way so as to obtain 5×10^7 viable cells per ml. The viability of the cells was checked with trypan blue dye exclusion test. The cytotoxicity assay was performed in 96 wells flat bottom tissue culture plates (Nunc Nunclon). The cells (5×10^6) in 100.0 μl volume were seeded into each well. The plate was incubated at 37° C. in atmosphere of 5% (v/v) CO2 for 8 h. The wells were examined microscopically for the formation of monolayer of the cells. […] In +ve control wells, a known cytotoxic protein obtained from A. fumigatus, was used. The ZnSO4 (8.0 mg/L) was used as another +ve toxic material in another set of wells. In negative control wells equivalent amount of the solvent was used. The duplicate wells were used for each concentration of the test compound. The plates were incubated at 37° C. in 5% (v/v) CO2 incubator overnight (12 h). The medium along with floating dead cells from the wells was removed by inverting the plate. Thus, only the live cells sticking to the surface of plate were left in the wells. […] After adding the dye to the wells, the plate was kept at 37° C. in 5% CO2 for 1 h. The tissue culture plate was removed from the incubator and all the dye was aspirated. Only live cells took up the dye. The cells were lysed by adding 100.0 μl of isopropanol-HCl to the wells. After lysis of the cells, the plates were read at 540 nm using plate reader (Spectra Max 190, Molecular Device).
(§4) The toxicity of the compound was expressed as percentage with respect to that obtained in −ve control sample. The percent cytotoxicity was calculated using the formula given below. [formula]
(§5) The percent cytotoxicity was plotted against log concentration of the compound to find out concentration which was cytotoxic to 50% of the cells (CT50).

[1] = In vitro cell cytotoxicity by MTT assay; assay type: cell-based; conditions: mouse; 1250.0 μg/ml; RAW cells; MTT; read-out: percent cytotoxicity
Experimental: as §1, §2, §3, §4, §5

A. fumigatus = experiment: Disc diffusion assay; assay type: cell-based; conditions: concentration developing zone of inhibition of 6.0-mm diameter
Experimental: Pathogenic strains of fungi were obtained from the Mycology Department of Vallabhbhai Patel Chest Institute, Delhi. All the strains were grown on Sabouraud dextrose agar at 37° C. The conidia form these cultures were harvested and suspended in Sabouraud maltose broth. The number of conidia was counted using haemocytometer and their number in the suspension was adjusted to as per need of the experiment.
The disc diffusion test was performed as per described in the section of details of invention. Amphotericin B 1.25 μg/disc was used in assay as positive control standard drug. Additional discs impregnated with equivalent amount of solvent were also used in the assay as negative controls (FIG. 5).
The potency of the compound was determined with the help of standard curve constructed using amphotericin B as standard drug against A. fumigatus. Standard curve was prepared according to method given in the Indian Pharmacopoeia. The corrected values of diameter of zone of inhibition along with lowest and highest values were determined. These values were plotted on semilog paper to prepare standard curve. The value of diameter of zone of inhibition obtained for compound was put into the standard curve and corresponding dose producing the effect equivalent to amphotericin B was determined to find out the potency of the compound (FIG. 6).

A. fumigatus infection = experiment: Quantification of colony forming units in organs of infected mice; assay type: in vivo, Balb/C mice
Text: In vivo efficacy of the compound against A. fumigatus infection was studied in the Balb/C mice of 6-8 weak of age of either sex, weighing 15-20 g each. The mice model of aspergillosis described by Dixon et al (1989), was used to study the effects of compound on in vivo infection of A. fumigatus.
The animals were housed in the micro-barrier cages on sterile bedding and fed ad libitum water and food. The mice were divided into 6 groups and each group contained 8-10 animals. The mice were infected experimentally with A. fumigatus. Three days prior to infection with conidia, mice were injected subcutaneously with 3 doses (250.0 mg/kg/day) of cortisone acetate in 400.0 μl of PBS. On the infection day, each mouse received 2×10^7 conidia by nasal instillation of a single droplet of conidial suspension. The animals of this model developed invasive aspergillosis and all the infected animals died within 4-6 days.
The mice were kept under constant watch and those getting moribund, dying or survived up to 10 days were sacrificed. The autopsy was performed on the mice who had died to remove their organs for quantification of colony forming units (CFU). The lungs, livers and kidneys of the mice were removed aseptically, placed in sterile PBS (pH 7.2) and homogenized with teflon pestle mortar. The CFU in the animals were determined by plating 10 fold dilutions of organ homogenates on Sabouraud dextrose agar containing 0.05% triton X-100. The triton X-100 limited the colony size and thus greatly facilitated colony counting (Frosco, 1992). After an incubation for 48 h at 37° C., colonies were counted and results were expressed as CFU per organ.
The fungal burden in the organs of the animals, which died or became moribund during study or those survived up to 10th day, was determined. The lungs, livers and kidneys of the animals were isolated, homogenized and the homogenate was used to culture the pathogen on Sabouraud dextrose agar plates. The colonies of the fungus were counted and expressed as colony forming units (CFU)/organ.

CCCCC(=O)OC(C)CC1NCC(C)=C1C (stereo not shown) [PC-1, 2-(3,4-dimethyl-2,5-dihydro-1H-pyrrol-2-yl)-1-methylethyl pentanoate]
concentration completely non-toxic to the cells (RAW cells; RAW cells, MTT): up to 312.5 μg/ml
CT50 (dose cytotoxic to 50% of the cells) (RAW cells; RAW cells, MTT, 12 h): 889.2 µg/mL
less cytotoxic than the standard antifungal drug Amphotericin B (RAW cells; comparison with Amphotericin B): 57.8 times
cytotoxicity at 12 h, 1250 μg/ml [1]: 76%
MIC by disc diffusion assay (A. fumigatus): 5 μg/disc
MIC by disc diffusion assay (A. fumigatus; listed as antifungal lead molecule): 5.0 μg/disc
effect on colony counts in lung as compared to controls (A. fumigatus infection; 400 mg/kg body weight, p<0.001): reduced the colony counts significantly
effect on number of CFUs in kidneys (A. fumigatus infection; 100.0 to 400.0 mg/kg body weight): significant reduction
effect on the CFUs in the lung tissue (A. fumigatus infection; doses of 25.0 and 50.0 mg/kg body weight): did not have any effect
effect on CFUs in liver (A. fumigatus infection; liver): very less effect
